Test results as given in paper PMC12135181, “The mechanism of lineage-specific tRNA recognition by bacterial tryptophanyl-tRNA synthetase and its implications for inhibitor discovery” (Nucleic Acids Research, 2025).
Where two headings read alike, the source gives them in different places.

Assays:
[1] = target: T1, EcTrpRS (Escherichia coli, UniProt P00954); assay: Pyrophosphate (PPi) production assay; type: biochemical; details: 10 μM compound, average of three; for inhibition at 10 µM: read-out: Inhibitory rate of PPi production activity of EcTrpRS
T1 construct: hexahistidine tag (C); made in house; host or cells: Escherichia coli BL21(DE3)
Method: The inhibitory effects of various compounds of EcTrpRS were evaluated using a pyrophosphate (PPi) production assay. EcTrpRS was incubated with 10 μM (in 0.1% DMSO) of each compound for 10 min at room temperature. […] The mixture was incubated at 26°C for 45 min, after which 40 μl of malachite green reagent was added to terminate the reaction and develop color. Following an additional incubation of 10 min, the absorbance (A) was measured at 640 nm using a Synergy H1 microplate reader (BioTek). The absorbance of the reaction without adding a compound was designated as A1, the absorbance of the reaction without adding EcTrpRS was A0, and the absorbance of the reaction with the addition of a compound was AC. The inhibitory rates of compounds on enzyme activity were calculated as (A1 − AC)/(A1 − A0) × 100%. Each reaction was performed in triplicate.

[2] = target: T1, EcTrpRS; assay: Isothermal titration calorimetry (ITC) to EcTrpRS; type: binding
Method: (§1) The binding affinities of various compounds to EcTprRS were measured using a MicroCal VP-ITC microcalorimeter (MicroCal). Compounds at a concentration of 200 μM were titrated into 20 μM of EcTrpRS in PBS (phosphate buffered saline) buffer (137 mM NaCl, 2.7 mM KCl, 8 mM Na2HPO4, and 2 mM KH2PO4). The titration assays were conducted at 26°C, beginning with an initial injection of 0.4 μl, followed by 18 injections of 2 μl each, with an interval of 120 s between each injection. The dissociation constants (Kd) were calculated by fitting the calorimetric data to a one-site binding model using MicroCal PEAQ-ITC analysis software, with the reported errors in Kd values representing the curve fitting errors. All isothermal titration calorimetry (ITC) experiments were repeated at least twice, and the titrations of compounds to HcTrpRS were also performed for comparison.

[3] = target: T1, EcTrpRS; type: binding
[4] = target: T2, HcTrpRS (Homo sapiens, UniProt P23381); assay: Isothermal titration calorimetry (ITC) to HcTrpRS; type: binding
T2 construct: made in house
T2 sequence (P23381 1-471): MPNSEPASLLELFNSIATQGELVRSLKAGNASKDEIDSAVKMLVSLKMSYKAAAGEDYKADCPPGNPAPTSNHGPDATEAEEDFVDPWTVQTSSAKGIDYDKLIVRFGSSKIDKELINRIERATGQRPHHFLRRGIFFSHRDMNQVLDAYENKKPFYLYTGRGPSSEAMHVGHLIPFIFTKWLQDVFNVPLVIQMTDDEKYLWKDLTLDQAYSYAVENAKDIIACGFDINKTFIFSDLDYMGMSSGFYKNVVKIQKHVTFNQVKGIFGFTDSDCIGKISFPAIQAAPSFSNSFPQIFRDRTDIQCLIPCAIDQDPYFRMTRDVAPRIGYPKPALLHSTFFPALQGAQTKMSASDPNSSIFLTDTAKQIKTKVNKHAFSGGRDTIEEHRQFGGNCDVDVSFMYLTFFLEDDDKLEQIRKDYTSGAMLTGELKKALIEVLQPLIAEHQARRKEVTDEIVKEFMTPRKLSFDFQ
Method: as §1

[5] = no tRNA, no ATP, 26°C, PBS, read-out: Kd for binding to EcTrpRS (ITC)

Row | SMILES | Inhibitory rate of PPi production activity of EcTrpRS ([1]; 10 µM) | inhibition at 10 µM [1] [%] | Change of ΔTm of EcTrpRS with compound after addition of tRNA^Trp [3] | other results
1 | Nc1ncnc2n[nH]c(-c3ccc(Oc4ccccc4)cc3)c12 [IBT4A] | nor did they exhibit considerable inhibitory rates |  |  | Inhibitory rate of PPi production activity of EcTrpRS ([1]; listed as 8, 10 µM): < 5%
2 | Nc1ncnc2c1c(-c1ccc(Oc3ccccc3)cc1)nn2[C@@H]1CCCNC1 [IBT6A] | nor did they exhibit considerable inhibitory rates |  |  | Inhibitory rate of PPi production activity of EcTrpRS ([1]; listed as 6, 10 µM): 9%
3 | N[C@@H](Cc1c[nH]c2ccccc12)C(=O)O [L-Trp, tryptophan] |  |  |  | Binding to EcTrpRS (ITC) ([2]; in the presence of 200 μM N-piperidine ibrutinib): no binding; Kd [2, 5]: 40200 ± 4800 nM
4 | C=CC(=O)N1CCC[C@H](n2c(=O)n(-c3ccc(Oc4ccccc4)cc3)c3c(N)ncnc32)C1 [ONO-4059 analogue] |  | 38 | reduced | 
5 | Nc1ncnc2c1c(-c1ccc(Oc3ccccc3)cc1)nn2C1CCCC1 [PCI-29732] | nor did they exhibit considerable inhibitory rates |  |  | Inhibitory rate of PPi production activity of EcTrpRS ([1]; listed as 7, 10 µM): < 5%
6 | C=CC(=O)N1CCC[C@@H](n2nc(-c3ccc(Oc4ccccc4)cc3)c3c(N)ncnc32)C1 [ibrutinib] |  | 12 |  | Inhibitory rate of PPi production activity of EcTrpRS [1]: nor did they exhibit considerable inhibitory rates; ΔTm of EcTrpRS [3]: did not produce significant changes
7 | CN=C1NC(=O)[C@H]([C@H](C)c2c[nH]c3ccccc23)O1 [indolmycin] |  | 93 |  | Kd ([2]; in the absence of ATP, read-out: Kd (binding affinity) to EcTrpRS (ITC)): 804 ± 54 nM; Kd ([2]; in the presence of 1 mM ATP, read-out: Kd (binding affinity) to EcTrpRS (ITC)): 503 ± 31 nM
8 | CC#CC(=O)N1CC[C@@H](n2c(=O)n(-c3ccc(Oc4ccccc4)cc3)c3c(N)ncnc32)C1 [tirabrutinib] |  | 50 | reduced | Kd [2, 5]: 4800 ± 200 nM; Binding affinity for HcTrpRS (ITC) [4]: no binding affinities
9 | C=CC(=O)N1CCC[C@@H](n2c(=O)n(-c3ccc(Oc4ccccc4)cc3)c3c(N)nccc32)C1 [tolebrutinib] |  | 19 | reduced | 
